Reference: patent US8748461B2, “Metalloenzyme inhibitor compounds” (Viamet Pharmaceuticals, Inc., priority 2011, dated 2014)
In brackets after ≈: the same amount, converted by molar mass.

Experiments:
[1] = tested on: Septoria tritici (ATCC 26517); experiment: Minimum Inhibitory Concentration (MIC) vs. Septoria tritici; format: cell-based; details: 50% reduction in growth of S. tritici, 22° C., seven days; for MIC: Zymoseptoria tritici, ATCC26517, 168 h, read-out: Septoria Rating (MIC)
Method: C. Minimum Inhibitory Concentration (MIC) vs. Septoria tritici Compounds were assessed for their ability to inhibit the growth of a common strain of the fungal plant pathogen Septoria tritici (ATCC 26517) using a procedure based on a Clinical and Laboratory Standards Institute (CLSI) microdilution assay protocol for filamentous fungi. Stock solutions of the test compounds and standards were prepared in DMSO at 6400 μg/mL. Each stock solution was used to prepare a 2-fold dilution series ranging from 16 to 0.016 μg/mL (total of 11 compound concentrations) in RPMI-1640 (Roswell Park Memorial Institute) medium containing 3-(N-morpholino)propanesulfonic acid (MOPS) buffer and 2% DMSO. A 100 μL aliquot of the dilutions was added to columns 1 (16 μg/mL compound) through 11 (0.016 μg/mL compound) of a 96-well microtiter plate. This format was replicated in a second row of the microtiter plate. Thus, each microtiter plate could include 11 concentrations of four test or control compounds replicated twice. A 100 μL aliquot of RPMI-1640/MOPS/2% DMSO medium was added to column 12 (no compound control) of the microtiter plate. A fresh culture of S. tritici was used to prepare a solution of approximately 5×10^4 colony-forming units per milliliter (cfu/mL) in RPMI/MOPS medium without DMSO. A 100 μL aliquot of this solution was added to all 96 wells in the microtiter plate. […] The assay plates were incubated at 22° C. for seven days in the dark without shaking. […] In each case of Table 3, the Septoria rating scale is as follows: […]

[2] = tested on: Puccinia recondita tritici = Puccinia triticina; experiment: Fungicidal activity vs. leaf rust on wheat plants; format: in vivo; details: 50 ppm spray on wheat (Yuma), inoculated the following day, evaluated 7-9 days later; for pest or weed control at 50 ppm: read-out: Puccinia Rating (% Disease Control @ 50 ppm)
From the text: D. Evaluation of Fungicidal Activity Vs. Leaf Rust (Causal Agent Puccinia recondita Tritici=Puccinia triticina; Bayer code PUCCRT). […] Each pot contained 3-8 seedlings. These plants were sprayed until wet with the formulated test compounds. The compounds were formulated at 50 ppm in 10 vol. % acetone plus 90 vol. % Triton X water (deionized water 99.99 wt %+0.01 wt % Triton X100), giving a “formulated test compound.” Formulated test compounds were applied to plants using a turn table sprayer fitted with two opposing air atomization nozzles which delivered approximately 1500 L/ha of spray volume. On the following day, the leaves were inoculated with an aqueous spore suspension of Puccinia recondita tritici and the plants were kept in high humidity overnight to permit spores to germinate and infect the leaf. The plants were then transferred to a greenhouse until disease developed on untreated control plants. Disease severity was evaluated 7-9 days later, depending on the speed of disease development. In each case of Table 3, the Puccinia rating scale is as follows: […]

SMILES | MIC [1] [mg/L] | pest or weed control at 50 ppm [2] [%] | Septoria Rating (MIC) [1] | Puccinia Rating (% Disease Control @ 50 ppm) [2]
OC(Cn1cnnn1)(c1ccc(F)cc1F)C(F)(F)c1ccc(Oc2ccc(Cl)cn2)cn1 (stereo not shown) [Compound 95, 1-(5-((5-chloropyridin-2-yl)oxy)pyridin-2-yl)-2-(2,4-difluorophenyl)-1,1-difluoro-3-(1H-tetrazol-1-yl)propan-2-ol] | ≤ 0.5 | 80 to 100 |  | 
OC(Cn1cnnn1)(c1ccc(F)cc1F)C(F)(F)c1ccc(OCc2ccc(Cl)cc2F)cn1 (stereo not shown) [Compound 1, 1-(5-(4-Chloro-2-fluorobenzyloxy)pyridin-2-yl)-2-(2,4-difluorophenyl)-1,1-difluoro-3-(1H-tetrazol-1-yl)propan-2-ol] | ≤ 0.5 | 80 to 100 |  | 
OC(Cn1cnnn1)(c1ccc(F)cc1F)C(F)(F)c1ccc(Oc2cccc(F)c2)cn1 (stereo not shown) [Compound 77, 2-(2,4-Difluorophenyl)-1,1-difluoro-1-(5-(3-fluorophenoxy)pyridin-2-yl)-3-(1H-tetrazol-1-yl)propan-2-ol] | ≤ 0.5 | 60 to 79 |  | 
OC(Cn1cnnn1)(c1ccc(F)cc1F)C(F)(F)c1ccc(OCc2ccccc2)cn1 (stereo not shown) [Compound 30, 1-(5-(Benzyloxy)pyridin-2-yl)-2-(2,4-difluorophenyl)-1,1-difluoro-3-(1H-tetrazol-1-yl)propan-2-ol] |  |  | A (≦0.5) | A (80-100)
OC(Cn1cnnn1)(c1ccc(F)cc1F)C(F)(F)c1ccc(Oc2ncc(C(F)(F)F)cc2Cl)cn1 (stereo not shown) [Compound 92, 1-(5-((3-chloro-5-(trifluoromethyl)pyridin-2-yl)oxy)pyridin-2-yl)-2-(2,4-difluorophenyl)-1,1-difluoro-3-(1H-tetrazol-1-yl)propan-2-ol] | ≤ 0.5 | 80 to 100 |  | 
N#Cc1ccc(COc2ccc(C(F)(F)C(O)(Cn3cnnn3)c3ccc(F)cc3F)nc2)nc1 (stereo not shown) [Compound 50, 6-(((6-(2-(2,4-Difluorophenyl)-1,1-difluoro-2-hydroxy-3-(1H-tetrazol-1-yl)propyl)pyridin-3-yl)oxy)methyl)nicotinonitrile] | ≤ 0.5 | 80 to 100 |  | 
N#Cc1ccc(Oc2ccc(C(F)(F)C(O)(Cn3cnnn3)c3ccc(Cl)cc3F)nc2)cc1F (stereo not shown) [Compound 81, 4-((6-(2-(4-Chloro-2-fluorophenyl)-1,1-difluoro-2-hydroxy-3-(1H-tetrazol-1-yl)propyl)pyridin-3-yl)oxy)-2-fluorobenzonitrile] | ≤ 0.5 | 80 to 100 |  | 
O=Cc1ccc(Oc2ccc(C(F)(F)C(O)(Cn3cnnn3)c3ccc(F)cc3F)nc2)nc1 (stereo not shown) [Compound 101, 6-((6-(2-(2,4-difluorophenyl)-1,1-difluoro-2-hydroxy-3-(1H-tetrazol-1-yl)propyl)pyridin-3-yl)oxy)nicotinaldehyde] | > 4 | < 40 |  | 
N#Cc1ccc(COc2ccc(C(F)(F)C(O)(Cn3cnnn3)c3ccc(Cl)cc3F)nc2)nc1 (stereo not shown) [Compound 61, 6-(((6-(2-(4-Chloro-2-fluorophenyl)-1,1-difluoro-2-hydroxy-3-(1H-tetrazol-1-yl)propyl)pyridin-3-yl)oxy)methyl)nicotinonitrile] | ≤ 0.5 | 80 to 100 |  | 
OC(Cn1cnnn1)(c1ccc(F)cc1F)C(F)(F)c1ccc(OCc2ccc(OC(F)(F)F)cc2)cn1 (stereo not shown) [Compound 21, 2-(2,4-Difluorophenyl)-1,1-difluoro-3-(1H-tetrazol-1-yl)-1-(5-((4-(trifluoromethoxy)benzyl)oxy)pyridin-2-yl)propan-2-ol] | ≤ 0.5 | 80 to 100 |  | 
OC(Cn1cnnn1)(c1ccc(F)cc1F)C(F)(F)c1ccc(Oc2ncc(C(F)(F)F)cc2F)cn1 (stereo not shown) [Compound 104, 2-(2,4-difluorophenyl)-1,1-difluoro-1-(5-((3-fluoro-5-(trifluoromethyl)pyridin-2-yl)oxy)pyridin-2-yl)-3-(1H-tetrazol-1-yl)propan-2-ol] | ≤ 0.5 | 80 to 100 |  | 
OC(Cn1cnnn1)(c1ccc(F)cc1F)C(F)(F)c1ccc(OCc2ccccc2F)cn1 (stereo not shown) [Compound 46, 2-(2,4-Difluorophenyl)-1,1-difluoro-1-(5-((2-fluorobenzyl)oxy)pyridin-2-yl)-3-(1H-tetrazol-1-yl)propan-2-ol] | ≤ 0.5 | 80 to 100 |  | 
C=COc1ccc(C(F)(F)C(O)(Cn2cnnn2)c2ccc(F)cc2F)nc1 (stereo not shown) [Compound 14, 2-(2,4-Difluorophenyl)-1,1-difluoro-3-(1H-tetrazol-1-yl)-1-(5-(vinyloxy)pyridin-2-yl)propan-2-ol] | 1.5 to 4 (≈ 3.79 to 10.1 µM) |  |  | 
N#Cc1cccc(COc2ccc(C(F)(F)C(O)(Cn3ncnn3)c3ccc(F)cc3F)nc2)c1 (stereo not shown) [Compound 53, 3-(((6-(2-(2,4-Difluorophenyl)-1,1-difluoro-2-hydroxy-3-(2H-tetrazol-2-yl)propyl)pyridin-3-yl)oxy)methyl)benzonitrile] | > 4 |  |  | 
N#Cc1ccc(Oc2ccc(C(F)(F)C(O)(Cn3ncnn3)c3ccc(Cl)cc3F)nc2)cc1F (stereo not shown) [Compound 82, 4-((6-(2-(4-Chloro-2-fluorophenyl)-1,1-difluoro-2-hydroxy-3-(2H-tetrazol-2-yl)propyl)pyridin-3-yl)oxy)-2-fluorobenzonitrile] | > 4 |  |  | 
OC(Cn1ncnn1)(c1ccc(F)cc1F)C(F)(F)c1ccc(OCc2ccccc2)cn1 (stereo not shown) [Compound 31, 1-(5-(Benzyloxy)pyridin-2-yl)-2-(2,4-difluorophenyl)-1,1-difluoro-3-(2H-tetrazol-2-yl)propan-2-ol] | > 4 |  |  | 
N#Cc1ccc(COc2ccc(C(F)(F)C(O)(Cn3ncnn3)c3ccc(F)cc3F)nc2)c(F)c1 (stereo not shown) [Compound 58, 4-(((6-(2-(2,4-Difluorophenyl)-1,1-difluoro-2-hydroxy-3-(2H-tetrazol-2-yl)propyl)pyridin-3-yl)oxy)methyl)-3-fluorobenzonitrile] | 1.5 to 4 (≈ 2.99 to 7.96 µM) |  |  | 
OC(Cn1cnnn1)(c1ccc(F)cc1F)C(F)(F)c1ccc(Oc2ccc(C(F)(F)F)nc2)cn1 (stereo not shown) [Compound 111, 2-(2,4-difluorophenyl)-1,1-difluoro-3-(1H-tetrazol-1-yl)-1-(5-((6-(trifluoromethyl)pyridin-3-yl)oxy)pyridin-2-yl)propan-2-ol] | ≤ 0.5 |  |  | 
OC(Cn1cnnn1)(c1ccc(F)cc1F)C(F)(F)c1ccc(Oc2ccc3ccccc3n2)cn1 (stereo not shown) [Compound 108, 2-(2,4-difluorophenyl)-1,1-difluoro-1-(5-(quinolin-2-yloxy)pyridin-2-yl)-3-(1H-tetrazol-1-yl)propan-2-ol] | ≤ 0.5 |  |  | 
OC(Cn1cnnn1)(c1ccc(F)cc1F)C(F)(F)c1ccc(OCc2ncc(F)cc2F)cn1 (stereo not shown) [Compound 60, 2-(2,4-Difluorophenyl)-1-(5-((3,5-difluoropyridin-2-yl)methoxy)pyridin-2-yl)-1,1-difluoro-3-(1H-tetrazol-1-yl)propan-2-ol] | 1.5 to 4 (≈ 3.02 to 8.06 µM) |  |  | 
CC#CCOc1ccc(C(F)(F)C(O)(Cn2cnnn2)c2ccc(Cl)cc2F)nc1 (stereo not shown) [Compound 63, 1-(5-(But-2-yn-1-yloxy)pyridin-2-yl)-2-(4-chloro-2-fluorophenyl)-1,1-difluoro-3-(1H-tetrazol-1-yl)propan-2-ol] | ≤ 0.5 |  |  | 
N#Cc1ccc(COc2ccc(C(F)(F)C(O)(Cn3ncnn3)c3ccc(F)cc3F)nc2)nc1 (stereo not shown) [Compound 51, 6-(((6-(2-(2,4-Difluorophenyl)-1,1-difluoro-2-hydroxy-3-(2H-tetrazol-2-yl)propyl)pyridin-3-yl)oxy)methyl)nicotinonitrile] | > 4 |  |  | 
OC(Cn1cnnn1)(c1ccc(F)cc1F)C(F)(F)c1ccc(OCc2ccc(OCC(F)(F)F)cc2)cn1 (stereo not shown) [Compound 20, 2-(2,4-Difluorophenyl)-1,1-difluoro-3-(1H-tetrazol-1-yl)-1-(5-((4-(2,2,2-trifluoroethoxy)benzyl)oxy)pyridin-2-yl)propan-2-ol] | ≤ 0.5 |  |  | 
N#Cc1ccc(COc2ccc(C(F)(F)C(O)(Cn3ncnn3)c3ccc(F)cc3F)nc2)s1 (stereo not shown) [Compound 74, 5-(((6-(2-(2,4-Difluorophenyl)-1,1-difluoro-2-hydroxy-3-(2H-tetrazol-2-yl)propyl)pyridin-3-yl)oxy)methyl)thiophene-2-carbonitrile] | > 4 |  |  | 
CC(Oc1ccc(C(F)(F)C(O)(Cn2ncnn2)c2ccc(F)cc2F)nc1)C(F)(F)F (stereo not shown) [Compound 48, 2-(2,4-Difluorophenyl)-1,1-difluoro-3-(2H-tetrazol-2-yl)-1-(5-((1,1,1-trifluoropropan-2-yl)oxy)pyridin-2-yl)propan-2-ol] | 0.5 to 1.5 (≈ 1.07 to 3.22 µM) |  |  | 
